Results reported in paper PMC12914960, “Repurposing a detrimental antibody epitope as targeted therapeutics for sepsis and rheumatoid arthritis” (Military Medical Research, 2026).
Where “and” joins values, the source holds several entries; their conditions need not be identical. Equal entries are not always repeated. Where a SMILES comes first, the peptide text is derived from it.

Legend:
[1] = system: CAIA-induced pain sensitivity in BALB/c mice; test: Mechanical allodynia, Von Frey filaments, in CAIA mice; assay type: in vivo, mouse; parameters: key to CAIA-induced pain sensitivity (Von Frey score) / CAIA-induced pain response (Vor Frey score): 50% paw withdrawal threshold, force in g; conditions: for CAIA-induced pain response (Vor Frey score): female, effect of mAb2, P2-1
Description: Mechanical allodynia was assessed using Von Frey filaments (Stoelting Co., Wood Dale, IL, USA) applied to the plantar surface of the hind paws as previously described. The mice (n = 6–10) were habituated to individual transparent enclosures on an elevated wire mesh platform. Calibrated Von Frey filaments (0.008–2.000 g) were applied for 2–3 s or until a withdrawal response occurred. The “up-down” method determines the 50% paw withdrawal threshold, defined as the force required to elicit a withdrawal response in 50% of applications.

[2] = system: pCTS-L secretion from human PBMCs; test: HMGB1-induced pCTS-L secretion by PBMCs, Western blotting; assay type: cell-based; conditions: 16 h; for pCTS-L release: densitometry
Description: Human blood was purchased from the New York Blood Center (Long Island City, NY, USA), and PBMCs were isolated via density gradient centrifugation through Ficoll (Ficoll-Paque PLUS) as previously described. PBMCs were cultured in RPMI-1640 supplemented with 10% human serum, 2 mmol/L L-glutamine, 100 U/ml penicillin, and 100 µg/ml streptomycin (all from Invitrogen, Carlsbad, CA, USA). For experiments, PBMCs were stimulated with recombinant HMGB1 (0.5 or 2.0 µg/ml) for 16 h, either alone or in combination with P2-1 at 5.0 or 10.0 µg/ml. Cell-free supernatants were collected for analysis of cytokine/chemokine levels via cytokine antibody arrays, or pCTS-L levels via Western blotting analysis as previously described.
Cell-conditioned medium from human PBMC cultures was collected and concentrated via Amicon Ultra Centrifugal Filters with a 10 kD molecular weight cutoff (Cat. #UFC801096, MilliporeSigma, Burlington, MA, USA). Equal volumes of conditioned medium, representing equivalent numbers of cells, were resolved on sodium dodecyl sulfate-polyacrylamide gels and transferred to polyvinylidene difluoride membranes. After being blocked with 5% nonfat milk in Tris-buffered saline with 0.1% Tween 20, the membranes were probed with a homemade primary monoclonal antibody against pCTS-L (e.g., mAb2, 1:1000) overnight as previously described. After washing, the membranes were incubated with a horseradish peroxidase-conjugated secondary antibody. The protein bands were visualized using enhanced chemiluminescence substrate (Pierce) and detected via a chemiluminescence imaging system (e.g., Bio-Rad ChemiDoc MP). The relative levels of specific proteins were determined using the UN-SCAN-IT gel analysis software version 7.1 (Silk Scientific Inc., Orem, UT, USA) and expressed in arbitrary units (AU). The experiments were performed in quadruplicate (n = 4 biological replicates).
Fig. S9 Full Western blotting analysis of the effect of P2- 1 on HMGB1- induced pCTS-L release in human PBMCs. Human PBMCs were stimulated with HMGB1 (0.5 µ g/ml) in th e abs ence or p resen ce of P2-1 (5.0 or 10.0 µg/ml) for 16 h, and the levels of pCTS-L in the cell-conditioned medium were determined by Western blotting, with sample loading normalized by volume of culture medium conditioned by an equivalent number of cells. Representative Western blotting images showing the dose-dependent […]
human PBMCs. HMGB1 high mobility group box 1, pCTS -L procathepisn L , PBMCs PBMCs peripheral […]
(1 picture or pasted object on this page, not shown here)

[3] = Water solubility; assay type: physicochemical; conditions: qualitative, text in Fig. 1d

## CCCC[C@H](NC(=O)[C@H](Cc1c[nH]cn1)NC(=O)[C@@H](NC(=O)[C@H](CCCCN)NC(=O)[C@@H](N)[C@@H](C)O)C(C)C)C(=O)N[C@@H](CCCCN)C(=O)N[C@@H](CO)C(=O)N[C@@H](Cc1ccccc1)C(=O)N[C@@H](CC(C)C)C(=O)N[C@@H](C)C(=O)N[C@@H](Cc1ccccc1)C(=O)N[C@@H](CCC(N)=O)C(=O)N[C@H](C(=O)N[C@@H](CCCCN)C(=O)N[C@H](C(=O)O)[C@@H](C)O)[C@@H](C)O [P2-1] (HELM PEPTIDE1{T.K.V.H.[Nle].K.S.F.L.A.F.Q.T.K.T}$$$$V2.0; N-terminus and C-terminus assumed)
[1]; CAIA + P2-1 (Day 10), individual values, P = 0.04443 vs. CAIA + Vehicle
  CAIA-induced pain sensitivity (Von Frey score): 0.14 and 0.17 and 1.23 and 0.05 and 0.75 and 0.26 and 0.09 and 0.57 and 0.18 and 0.16 and 0.44 and 0.78
[1]; P2-1 prophylactic
  pain sensitivity, in words: significantly reduced CAIA-induced pain sensitivity through partial restoration of mechanical withdrawal thresholds
[1]; P2-1 therapeutic, Von Frey
  pain sensitivity, in words: significantly reduced CAIA-induced pain sensitivity by partially restoring withdrawal thresholds to mechanical stimuli
[1]; Day 6, individual values
  CAIA-induced pain response (Vor Frey score): 0.37 and 0.11 and 0.21 and 0.16 and 1.19
[1]; Day 10, individual values, P = 0.04443 vs. CAIA + Vehicle
  CAIA-induced pain response (Vor Frey score): 0.57 and 0.31 and 0.96 and 0.32 and 0.44
[2]; HMGB1 (0.5) + P2-1 5.0 μg/ml, individual replicates
  pCTS-L release: 1.2 and 4 and 3.2 and 2.1
[2]; HMGB1 (0.5) + P2-1 10.0 μg/ml, individual replicates
  pCTS-L release: 0.4 and 0.7 and 1.9 and 1.1
[2]; HMGB1 (2.0) + P2-1 5.0 μg/ml, single value
  pCTS-L release: 4.8
[2]; HMGB1 (2.0) + P2-1 10.0 μg/ml, single value
  pCTS-L release: 1.6
[2]; P2-1 5.0 or 10.0 µg/ml
  HMGB1-induced pCTS-L secretion, in words: striking and dose-dependent suppression of HMGB1-induced pCTS-L secretion
[3]
  Water solubility: Good water solubility
